Test results as given in ChEMBL document CHEMBL4418493, “N-hydroxyformamide compounds and compositions comprising them for use as BMP1, TLL1 and/or TLL2 inhibitors” (2018).

Tests used:
[1] = Reduction in PICP levels in human cardiac fibroblasts incubated for 24 to 48 hrs by ELISA; format: functional
[2] = Reduction in mature collagen deposition levels in human cardiac fibroblasts incubated for 24 to 48 hrs by immunostaining based assay; format: functional
[3] = Drug metabolism in heparinized pooled human plasma at pH 7.5 assessed as formation of (S)-2-(2-ethoxy-4-(5-((((R)-2-((R)-1-(N-hydroxyformamido)propyl)heptanamido)methyl) carbamoyl)furan-2-yl)benzamido)succinic acid at 100 to 2000 ng/ml incubated up to 4 or 24 hrs by LC-MS/MS analysis; format: ADME, cell-free; settings: pH 7.5, 24 h
[4] = Drug metabolism in heparinized pooled human plasma at pH 7.5 assessed as formation of (3-ethoxy-5-(5-((((R)-2-((R)-1-(N-hydroxyformamido)propyl)heptanamido)methyl)carbamoyl) furan-2-yl)phenyl)phosphonic acid at 100 to 2000 ng/ml incubated up to 4 or 24 hrs by LC-MS/MS analysis; format: ADME, cell-free; settings: pH 7.5, 24 h
[5] = Drug metabolism in heparinized pooled human plasma at pH 7.5 assessed as conversion to active compound at 100 to 2000 ng/ml incubated for 4 by LC-MS/MS analysis; format: ADME, cell-free
[6] = Drug metabolism in heparinized pooled human plasma at pH 7.5 assessed as formation of (S)-2-(2-(carboxymethoxy)-4-(5-((((R)-2-((R)-1-(N-hydroxyformamido)propyl)heptanamido)methyl)carbamoyl)furan-2-yl)benzamido)succinic acid at 100 to 2000 ng/ml incubated up to 4 or 24 hrs by LC-MS/MS analysis; format: ADME, cell-free; settings: pH 7.5, 24 h
[7] = Stability in pH 7.96 assessed as compound purity level at 1 mg/ml heated to 40 degC and measured at 200 hrs by LC/MS analsysis; format: physicochemical; settings: buffer, read-out: Stability

In the case of `CCCCC[C@@H](C(=O)NCNC(=O)c1ccc(-c2ccc(C(=O)N[C@@H](CC(=O)O)C(=O)O)c(OCC)c2)o1)[C@@H](CC)N(C=O)OC(=O)c1ccc(O)cc1`, the IC50 [1] is reported as less than 3.98 µM, the IC50 [2] is reported as less than 1 µM and the Drug metabolism [3] is reported as “Metabolite_Detected”.

For `CCCCC[C@@H](C(=O)NCNC(=O)c1ccc(-c2ccc(C(=O)N[C@@H](CC(=O)O)C(=O)O)c(OCC)c2)o1)[C@@H](CC)N(C=O)OC(=O)c1ccc(OC)cc1OC(F)(F)F`, the IC50 [1] was less than 3.98 µM, the IC50 [2] was less than 1 µM and the Drug metabolism [3] was “Metabolite_Detected”.

In the case of `CCCCC[C@@H](C(=O)NCNC(=O)c1ccc(-c2ccc(C(=O)N[C@@H](CC(=O)O)C(=O)O)c(OCC)c2)o1)[C@@H](CC)N(C=O)OC(=O)c1cccc(-n2cccc2)c1`, the IC50 [1] is reported as less than 3.98 µM, the IC50 [2] is reported as less than 1 µM and the Drug metabolism [3] is reported as “Metabolite_Detected”.

For `CCCCC[C@@H](C(=O)NCNC(=O)c1ccc(-c2cc(OCC)cc(P(=O)(O)O)c2)o1)[C@@H](CC)N(C=O)OCOP(=O)(O)O`, the Drug metabolism [4] was “Metabolite_Detected” and the Drug metabolism [5] was greater than 10%.

In the case of `CCCCC[C@@H](C(=O)NCNC(=O)c1ccc(-c2ccc(C(=O)N[C@@H](CC(=O)O)C(=O)O)c(OCC)c2)o1)[C@@H](CC)N(C=O)OC(=O)c1ccc(N2CCCC2)c(F)c1.N.N`, the IC50 [1] is reported as less than 3.98 µM, the IC50 [2] is reported as less than 1 µM and the Drug metabolism [3] is reported as “Metabolite_Detected”.

With `CCCCC[C@@H](C(=O)NCNC(=O)c1ccc(-c2ccc(C(=O)N[C@@H](CC(=O)O)C(=O)O)c(OCC(=O)O)c2)o1)[C@@H](CC)N(C=O)OCOP(=O)(O)O` the Drug metabolism [6] was “Metabolite_Detected” and the Drug metabolism [5] was greater than 10%.

In the case of `CCCCC[C@@H](C(=O)NCNC(=O)c1ccc(-c2ccc(C(=O)N[C@@H](CC(=O)O)C(=O)O)c(OCC)c2)o1)[C@@H](CC)N(C=O)OC(=O)c1ccc(OC)cc1OC`, the IC50 [1] is reported as less than 3.98 µM, the IC50 [2] is reported as less than 1 µM and the Drug metabolism [3] is reported as “Metabolite_Detected”.

In the case of `CCCCC[C@@H](C(=O)NCNC(=O)c1ccc(-c2cc(OCC)cc(P(=O)(O)O)c2)o1)[C@@H](CC)N(C=O)OC(=O)c1ccc2c(c1)OCCO2`, the IC50 [1] is reported as less than 3.98 µM, the IC50 [2] is reported as less than 1 µM and the Drug metabolism [4] is reported as “Metabolite_Detected”.

For `CCCCC[C@@H](C(=O)NCNC(=O)c1ccc(-c2cc(OCC)cc(P(=O)(O)O)c2)o1)[C@@H](CC)N(C=O)OC(=O)c1ccc(OC)cc1C(C)C`, the IC50 [1] was less than 3.98 µM and the Drug metabolism [4] was “Metabolite_Detected”.

With `CCCCC[C@@H](C(=O)NCNC(=O)c1ccc(-c2cc(OCC)cc(P(=O)(O)O)c2)o1)[C@@H](CC)N(C=O)OC(=O)c1ccc(N2CCCC2=O)cc1.N.N` the IC50 [1] was less than 3.98 µM and the Drug metabolism [4] was “Metabolite_Detected”.

With `CCCCC[C@@H](C(=O)NCNC(=O)c1ccc(-c2ccc(C(=O)N[C@@H](CC(=O)O)C(=O)O)c(OCC)c2)o1)[C@@H](CC)N(C=O)OC(=O)NC(C)(C)C` the IC50 [1] was less than 3.98 µM, the IC50 [2] was less than 1 µM and the Drug metabolism [3] was “Metabolite_Detected”.

In the case of `CCCCC[C@@H](C(=O)NCNC(=O)c1ccc(-c2cc(OCC)cc(P(=O)(O)O)c2)o1)[C@@H](CC)N(C=O)OC(=O)c1ccc(OC)cc1C.N.N`, the IC50 [1] is reported as less than 3.98 µM and the Drug metabolism [4] is reported as “Metabolite_Detected”.

With `CCCCC[C@@H](C(=O)NCNC(=O)c1ccc(-c2ccc(C(=O)N[C@@H](CC(=O)O)C(=O)O)c(OCC(=O)O)c2)o1)[C@@H](CC)N(C=O)OC(=O)c1ccc(OC)cc1C.N.N.N` the Drug metabolism [6] was “Metabolite_Detected”, the IC50 [1] was less than 3.98 µM and the IC50 [2] was less than 1 µM.

In the case of `CCCCC[C@@H](C(=O)NCNC(=O)c1ccc(-c2ccc(C(=O)N[C@@H](CC(=O)O)C(=O)O)c(OCC)c2)o1)[C@@H](CC)N(C=O)OC(=O)c1ccc(OC)cc1C(F)(F)F`, the IC50 [1] is reported as less than 3.98 µM, the IC50 [2] is reported as less than 1 µM and the Drug metabolism [3] is reported as “Metabolite_Detected”.

With `CCCCC[C@@H](C(=O)NCNC(=O)c1ccc(-c2cc(OCC)cc(P(=O)(O)O)c2)o1)[C@@H](CC)N(C=O)OC(=O)OC(C)(C)C` the IC50 [1] was less than 3.98 µM, the IC50 [2] was less than 1 µM and the Drug metabolism [4] was “Metabolite_Detected”.

For `CCCCC[C@@H](C(=O)NCNC(=O)c1ccc(-c2ccc(C(=O)N[C@@H](CC(=O)O)C(=O)O)c(OCC(=O)O)c2)o1)[C@@H](CC)N(C=O)OC(=O)C(CC)CC`, the Drug metabolism [6] was “Metabolite_Detected”, the IC50 [1] was less than 3.98 µM and the IC50 [2] was less than 1 µM.

In the case of `CCCCC[C@@H](C(=O)NCNC(=O)c1ccc(-c2cc(OCC)cc(P(=O)(O)O)c2)o1)[C@@H](CC)N(C=O)OC(=O)NC(C)C`, the IC50 [1] is reported as less than 3.98 µM and the Drug metabolism [4] is reported as “Metabolite_Detected”.

With `CCCCC[C@@H](C(=O)NCNC(=O)c1ccc(-c2ccc(C(=O)N[C@@H](CC(=O)O)C(=O)O)c(OCC(=O)O)c2)o1)[C@@H](CC)N(C=O)OC(=O)c1ccccc1O` the Drug metabolism [6] was “Metabolite_Detected”, the remaining at 200 h, 1 mg/ml [7] was less than 80% and the Drug metabolism [5] was greater than 10%.

With `CCCCC[C@@H](C(=O)NCNC(=O)c1ccc(-c2ccc(C(=O)N[C@@H](CC(=O)O)C(=O)O)c(OCC)c2)o1)[C@@H](CC)N(C=O)OC(=O)c1c(C)ccnc1C` the IC50 [1] was less than 3.98 µM, the IC50 [2] was less than 1 µM and the Drug metabolism [3] was “Metabolite_Detected”.

For `CCCCC[C@@H](C(=O)NCNC(=O)c1ccc(-c2ccc(C(=O)N[C@@H](CC(=O)O)C(=O)O)c(OCC)c2)o1)[C@@H](CC)N(C=O)OC(=O)c1ccc(C(F)(F)F)cc1C`, the IC50 [1] was less than 3.98 µM, the IC50 [2] was less than 1 µM and the Drug metabolism [3] was “Metabolite_Detected”.

For `CCCCC[C@@H](C(=O)NCNC(=O)c1ccc(-c2ccc(C(=O)N[C@@H](CC(=O)O)C(=O)O)c(OCC)c2)o1)[C@@H](CC)N(C=O)OC(=O)c1ccc(OC)cc1F`, the IC50 [1] was less than 3.98 µM, the IC50 [2] was less than 1 µM and the Drug metabolism [3] was “Metabolite_Detected”.

With `CCCCC[C@@H](C(=O)NCNC(=O)c1ccc(-c2ccc(C(=O)N[C@@H](CC(=O)O)C(=O)O)c(OCC)c2)o1)[C@@H](CC)N(C=O)OC(=O)c1ccccc1C` the IC50 [1] was less than 3.98 µM, the IC50 [2] was less than 1 µM and the Drug metabolism [3] was “Metabolite_Detected”.

With `CCCCC[C@@H](C(=O)NCNC(=O)c1ccc(-c2cc(OCC)cc(P(=O)(O)O)c2)o1)[C@@H](CC)N(C=O)OC(=O)c1ccc(OC)cc1` the IC50 [1] was less than 3.98 µM, the IC50 [2] was less than 1 µM and the Drug metabolism [4] was “Metabolite_Detected”.

For `CCCCC[C@@H](C(=O)NCNC(=O)c1ccc(-c2ccc(C(=O)N[C@@H](CC(=O)O)C(=O)O)c(OCC)c2)o1)[C@@H](CC)N(C=O)OC(=O)NC(C)(C)c1ccccc1`, the IC50 [1] was less than 3.98 µM, the IC50 [2] was less than 1 µM and the Drug metabolism [3] was “Metabolite_Detected”.

In the case of `CCCCC[C@@H](C(=O)NCNC(=O)c1ccc(-c2cc(OCC)cc(P(=O)(O)O)c2)o1)[C@@H](CC)N(C=O)OC(=O)C(CC)CC`, the IC50 [1] is reported as less than 3.98 µM and the Drug metabolism [4] is reported as “Metabolite_Detected”.

`CCCCC[C@@H](C(=O)NCNC(=O)c1ccc(-c2ccc(C(=O)N[C@@H](CC(=O)O)C(=O)O)c(OCC)c2)o1)[C@@H](CC)N(C=O)OC(=O)c1ccccc1` showed a remaining at 200 h, 1 mg/ml [7] of less than 80%, an IC50 [1] of less than 3.98 µM and a Drug metabolism [5] greater than 10%. The Drug metabolism [3] was “Metabolite_Detected”.

For `CCCCC[C@@H](C(=O)NCNC(=O)c1ccc(-c2ccc(C(=O)N[C@@H](CC(=O)O)C(=O)O)c(OCC(=O)O)c2)o1)[C@@H](CC)N(C=O)OC(=O)c1ccccc1`, the Drug metabolism [6] was “Metabolite_Detected”, the remaining at 200 h, 1 mg/ml [7] was less than 80% and the Drug metabolism [5] was greater than 10%.

In the case of `CCCCC[C@@H](C(=O)NCNC(=O)c1ccc(-c2ccc(C(=O)N[C@@H](CC(=O)OCOC(=O)C(C)C)C(=O)OCOC(=O)C(C)C)c(OCC)c2)o1)[C@@H](CC)N(O)C=O`, the IC50 [1] is reported as less than 3.98 µM, the IC50 [2] is reported as less than 1 µM and the Drug metabolism [3] is reported as “Metabolite_Detected”.

With `CCCCC[C@@H](C(=O)NCNC(=O)c1ccc(-c2ccc(C(=O)N[C@@H](CC(=O)O)C(=O)O)c(OCC)c2)o1)[C@@H](CC)N(C=O)OC(=O)c1ccccc1C(C)C` the IC50 [1] was less than 3.98 µM, the IC50 [2] was less than 1 µM and the Drug metabolism [3] was “Metabolite_Detected”.

In the case of `CCCCC[C@@H](C(=O)NCNC(=O)c1ccc(-c2ccc(C(=O)N[C@@H](CC(=O)O)C(=O)O)c(OCC)c2)o1)[C@@H](CC)N(C=O)OC(=O)c1ccc(-n2cnnc2)cc1`, the IC50 [1] is reported as less than 3.98 µM, the IC50 [2] is reported as less than 1 µM and the Drug metabolism [3] is reported as “Metabolite_Detected”.

For `CCCCC[C@@H](C(=O)NCNC(=O)c1ccc(-c2ccc(C(=O)N[C@@H](CC(=O)O)C(=O)O)c(OCC)c2)o1)[C@@H](CC)N(C=O)OC(=O)OC(C)(C)C`, the IC50 [1] was less than 3.98 µM, the IC50 [2] was less than 1 µM and the Drug metabolism [3] was “Metabolite_Detected”.

With `CCCCC[C@@H](C(=O)NCNC(=O)c1ccc(-c2cc(OCC)cc(P(=O)(O)O)c2)o1)[C@@H](CC)N(C=O)OC(=O)NC(C)(C)C` the IC50 [1] was less than 3.98 µM and the Drug metabolism [4] was “Metabolite_Detected”.

For `CCCCC[C@@H](C(=O)NCNC(=O)c1ccc(-c2cc(OCC)cc(P(=O)(O)O)c2)o1)[C@@H](CC)N(C=O)OC(=O)c1ccc(N2CCCC2)c(F)c1.N.N`, the IC50 [1] was less than 3.98 µM and the Drug metabolism [4] was “Metabolite_Detected”.

For `CCCCC[C@@H](C(=O)NCNC(=O)c1ccc(-c2cc(OCC)cc(P(=O)(O)O)c2)o1)[C@@H](CC)N(C=O)OC(=O)Nc1ccccc1`, the IC50 [1] was less than 3.98 µM and the Drug metabolism [4] was “Metabolite_Detected”.

For `CCCCC[C@@H](C(=O)NCNC(=O)c1ccc(-c2cc(OCC)cc(P(=O)(O)O)c2)o1)[C@@H](CC)N(C=O)OC(=O)c1ccccc1O`, the IC50 [1] was less than 3.98 µM and the Drug metabolism [4] was “Metabolite_Detected”.

For `CCCCC[C@@H](C(=O)NCNC(=O)c1ccc(-c2cc(OCC)cc(P(=O)(O)O)c2)o1)[C@@H](CC)N(C=O)OC(=O)c1ccc2c(c1)OCCN2C`, the IC50 [1] was less than 3.98 µM and the Drug metabolism [4] was “Metabolite_Detected”.

With `CCCCC[C@@H](C(=O)NCNC(=O)c1ccc(-c2ccc(C(=O)N[C@@H](CC(=O)O)C(=O)O)c(OCC)c2)o1)[C@@H](CC)N(C=O)OC(=O)Cc1ccccc1` the remaining at 200 h, 1 mg/ml [7] was less than 80%, the Drug metabolism [5] was greater than 10% and the Drug metabolism [3] was “Metabolite_Detected”.
